Consider 4 compounds from ChEMBL document CHEMBL1151527, “Anti-pneumocystis activity of bis-amidoximes and bis-o-alkylamidoximes prodrugs” (1996).

Each structure is given as a SMILES string.

What all share (assay type): functional
In test [1] the test system is Rattus norvegicus. Put plainly: Percent salinte-treated controls were evaluated against Pneumocystis carinii in immunosuppressed rats at a dose of 22 umol/kg/day administered by tail vein injection.
Test [2] has as its system Rattus norvegicus. Put plainly: In vivo toxicity against Pneumocystis carinii in immunosuppressed rats at a dose of 33 umol/kg/day administered orally.
Test [3] relates to Rattus norvegicus. Put plainly: Percent salinte-treated controls were evaluated against Pneumocystis carinii in immunosuppressed rats at a dose of 33 umol/kg/day administered orally.
Test [4] deals with Rattus norvegicus. Put plainly: In vivo toxicity against Pneumocystis carinii in immunosuppressed rats at a dose of 22 umol/kg/day administered by tail vein injection.
For test [5], the system named is Rattus norvegicus. Put plainly: Percent salinte-treated controls were evaluated against Pneumocystis carinii in immunosuppressed rats at a dose of 2.7 umol/kg/day administered by tail vein injection.
For test [6], the system named is Rattus norvegicus. In words: In vivo toxicity against Pneumocystis carinii in immunosuppressed rats at a dose of 2.7 umol/kg/day administered by tail vein injection.
The subject of test [7] is Rattus norvegicus. In words: In vivo toxicity against Pneumocystis carinii in immunosuppressed rats at a dose of 0.03 umol/kg/day administered by tail vein injection.
For test [8], the system named is Rattus norvegicus. Put plainly: Percent salinte-treated controls were evaluated against Pneumocystis carinii in immunosuppressed rats at a dose of 0.3 umol/kg/day administered by tail vein injection.
For test [9], the system named is Rattus norvegicus. Put plainly: In vivo toxicity against Pneumocystis carinii in immunosuppressed rats at a dose of 26.6 umol/kg/day administered by tail vein injection.
The test system of test [10] is Rattus norvegicus. In words: Percent salinte-treated controls were evaluated against Pneumocystis carinii in immunosuppressed rats at a dose of 13.3 umol/kg/day administered by tail vein injection; Not available.
Test [11] deals with Rattus norvegicus. In words: Percent salinte-treated controls were evaluated against Pneumocystis carinii in immunosuppressed rats at a dose of 0.03 umol/kg/day administered by tail vein injection.
Test [12] deals with Rattus norvegicus. In words: Percent salinte-treated controls were evaluated against Pneumocystis carinii in immunosuppressed rats at a dose of 39.8 umol/kg/day administered orally.
The test system of test [13] is Rattus norvegicus. Put plainly: In vivo toxicity against Pneumocystis carinii in immunosuppressed rats at a dose of 13.3 umol/kg/day administered by tail vein injection.
The subject of test [14] is Rattus norvegicus. Put plainly: In vivo toxicity against Pneumocystis carinii in immunosuppressed rats at a dose of 66.3 umol/kg/day administered orally.
Test [15] relates to Rattus norvegicus. In words: In vivo toxicity against Pneumocystis carinii in immunosuppressed rats at a dose of 0.3 umol/kg/day administered by tail vein injection.
In test [16] the test system is Rattus norvegicus. In words: Percent salinte-treated controls were evaluated against Pneumocystis carinii in immunosuppressed rats at a dose of 66.3 umol/kg/day administered orally.
The subject of test [17] is Rattus norvegicus. In words: In vivo toxicity against Pneumocystis carinii in immunosuppressed rats at a dose of 39.8 umol/kg/day administered orally.
In test [18] the test system is Rattus norvegicus. Put plainly: In vivo toxicity against Pneumocystis carinii in immunosuppressed rats at a dose of 11 umol/kg/day administered orally.
In test [19] the test system is Rattus norvegicus. In words: Percent salinte-treated controls were evaluated against Pneumocystis carinii in immunosuppressed rats at a dose of 11 umol/kg/day administered by tail vein injection.
Test [20] has as its system Rattus norvegicus. Put plainly: In vivo toxicity against Pneumocystis carinii in immunosuppressed rats at a dose of 5.5 umol/kg/day administered by tail vein injection.
Test [21] deals with Rattus norvegicus. Put plainly: Percent salinte-treated controls were evaluated against Pneumocystis carinii in immunosuppressed rats at a dose of 5.5 umol/kg/day administered by tail vein injection.
Test [22] deals with Rattus norvegicus. Put plainly: In vivo toxicity against Pneumocystis carinii in immunosuppressed rats at a dose of 11 umol/kg/day administered by tail vein injection.
Test [23] deals with Rattus norvegicus. In words: In vivo toxicity against Pneumocystis carinii in immunosuppressed rats at a dose of 5.5 umol/kg/day administered orally.
Test [24] deals with Rattus norvegicus. In words: Percent salinte-treated controls were evaluated against Pneumocystis carinii in immunosuppressed rats at a dose of 11 umol/kg/day administered orally.
Test [25] concerns Rattus norvegicus. In words: Percent salinte-treated controls were evaluated against Pneumocystis carinii in immunosuppressed rats at a dose of 5.5 umol/kg/day administered orally.
Test [26] has as its system Rattus norvegicus. In words: In vivo toxicity against Pneumocystis carinii in immunosuppressed rats at a dose of 22 umol/kg/day administered orally.
In test [27] the test system is Rattus norvegicus. Put plainly: Percent salinte-treated controls were evaluated against Pneumocystis carinii in immunosuppressed rats at a dose of 22 umol/kg/day administered orally.

Turning to `CCONC(=N)c1ccc(-c2ccc(-c3ccc(C(=N)NOCC)cc3)o2)cc1`, the Saline control in the test on Rattus norvegicus [1] came to 104.7%; in the test with Rattus norvegicus [3], 121.5%. Moreover, the figures for the Toxicity with Rattus norvegicus [2] and with Rattus norvegicus [4] were 0 and 1, respectively.

For `N=C(N)c1ccc(-c2ccc(-c3ccc(C(=N)N)cc3)o2)cc1` [FURAMIDINE], the Saline control in the test on Rattus norvegicus [5] was 7.26%; in the test on Rattus norvegicus [8], 6.92%; in the test with Rattus norvegicus [10] it was 0.79%; with Rattus norvegicus [11] it was 26.3%; with Rattus norvegicus [12], 42.3%; in the test with Rattus norvegicus [16], 25.2%. Further, the Toxicity in the test on Rattus norvegicus [6] was determined as 0; in the test with Rattus norvegicus [7], 0; with Rattus norvegicus [9], 1; with Rattus norvegicus [13], 0; with Rattus norvegicus [14] it was 0; in the test with Rattus norvegicus [15], 0. The compound also returned a Toxicity in the test on Rattus norvegicus [17] of 0.

Take `N=C(NO)c1ccc(-c2ccc(-c3ccc(/C(N)=N\O)cc3)o2)cc1`: the Toxicity with Rattus norvegicus [18] came out at 0; in the test on Rattus norvegicus [6] it was 0; with Rattus norvegicus [20], 1; in the test on Rattus norvegicus [2], 0; in the test with Rattus norvegicus [15] it was 0; with Rattus norvegicus [22], 1. For the same compound, the Toxicity was 0 in the test on Rattus norvegicus [23] and 1 in the test with Rattus norvegicus [4]. Besides, the Saline control in the test on Rattus norvegicus [5] worked out at 54.4%; in the test with Rattus norvegicus [19] it was 1.37%; in the test with Rattus norvegicus [8] it was 203.6%; in the test with Rattus norvegicus [1] it was 0.67%; in the test with Rattus norvegicus [21] it was 42.3%; in the test on Rattus norvegicus [3], 3.1%. Further, the Saline control with Rattus norvegicus [24] was 197.6%; with Rattus norvegicus [25] it was 127%.

`CONC(=N)c1ccc(-c2ccc(-c3ccc(C(=N)NOC)cc3)o2)cc1` [PAFURAMIDINE]: the Toxicity in the test with Rattus norvegicus [18], with Rattus norvegicus [2], in the test with Rattus norvegicus [26], in the test with Rattus norvegicus [23] and in the test on Rattus norvegicus [4] was 0 in each case. Further, the Saline control came to 14.3% in the test on Rattus norvegicus [1]; 1.82% in the test on Rattus norvegicus [3]; 12% in the test with Rattus norvegicus [27]; 34.7% in the test on Rattus norvegicus [24]; 264.2% with Rattus norvegicus [25].
